In patent US20230120597A1, “CO-AGONISTS AT GLP-1 AND GIP RECEPTORS SUITABLE FOR ORAL DELIVERY” (Novo Nordisk A/S, priority 2020, published 2023):
Where two headings read alike, the source gives them in different places. Starred links: 1 amine or outer side, 2 acyl side, 3 side chain; linkers in the order of their positions; H or OH if unused. Non-standard residues stand in square brackets, D forms with d. Residues, ends and D or L forms follow the SMILES beside them. Groups on a side chain read outwards from the residue. *: point of attachment. C18 diacid = O=C(O)CCCCCCCCCCCCCCCCC(=O)*; γGlu = O=C(O)[C@H](CCC(=O)[*:2])N[*:1]; εLys = N[C@@H](CCCCN[*:1])C(=O)[*:2]; AEEA = NCCOCCOCC(=O)O; Aib = CC(C)(N)C(=O)O

Assays:
human GIP receptor = molecular target: T1, human GIP receptor (Homo sapiens, UniProt P48546); assay: In vitro functional potency, CRE luciferase reporter gene assay, whole BHK cells expressing hGIPR; assay type: cell-based; details: BHK CRE luc2P hGIPR cells
T1 construct: expressed in transfected cells; host or cells: BHK (parent line BHKTS13), clone BHK CRE luc2P hGIPR
T1 sequence (P48546 22-466): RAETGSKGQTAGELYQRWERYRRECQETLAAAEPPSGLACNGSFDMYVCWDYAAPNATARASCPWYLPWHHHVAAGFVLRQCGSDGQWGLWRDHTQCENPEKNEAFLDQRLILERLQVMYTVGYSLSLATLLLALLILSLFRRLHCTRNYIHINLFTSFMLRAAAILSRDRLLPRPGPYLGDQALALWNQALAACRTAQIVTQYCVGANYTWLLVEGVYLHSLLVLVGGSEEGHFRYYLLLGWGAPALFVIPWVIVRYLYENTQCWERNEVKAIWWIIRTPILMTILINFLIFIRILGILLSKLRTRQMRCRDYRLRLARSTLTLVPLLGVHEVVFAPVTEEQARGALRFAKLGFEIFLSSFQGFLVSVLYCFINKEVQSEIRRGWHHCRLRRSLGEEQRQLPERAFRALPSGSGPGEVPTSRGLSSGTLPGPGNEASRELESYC
Method: (§1) The in vitro functional potency is the measure of target receptor activation in a whole cell assay.
(§2) In vitro functional potency was determined by measuring the response of the target receptor in a reporter gene assay in individual cell lines. […] When the respective receptor is activated, it results in the production of cAMP, which in turn results in expression of the luciferase protein. When assay incubation is completed, luciferase substrate (luciferin) is added resulting in the enzymatic conversion of luciferin to oxyluciferin and producing bioluminescence. The luminescence is measured as the readout for the assay.
(§3) The cells lines used in these assays were BHK cells with BHKTS13 as a parent cell line. The cell lines were derived from a clone containing the CRE luciferase element and were established by further transfection with the respective human receptor to obtain the relevant cell line: BHK CRE luc2P hGLP-1R or BHK CRE luc2P hGIPR. The cells were cultured at 37° C. with 5% CO2 in Cell Culture Medium. They were aliquoted and stored in liquid nitrogen. The cells were kept in continuous culture and were seeded out the day before each assay.
(§4) GLP-1R Cell Culture Medium consisted of DMEM medium with 10% FBS, 500 μg/mL G418, and 300 μg/mL hygromycin. GIPR Cell Culture Medium consisted of DMEM medium with 10% FBS, 400 μg/mL G418, and 300 μg/mL hygromycin. Assay Buffer consisted of DMEM w/o phenol red, 10 mM Hepes, 1× Glutamax. 1% ovalbumin, and 0.1% Pluronic F-68 with the addition of HSA at twice the final assay concentration.
(§5) Procedure • 1) Cells were plated at 5000 cells/well and incubated overnight in the assay plate. • 2) Cells were washed once in DPBS. • 3) Stocks of the test compounds and reference compounds in concentrations ranging from […] were diluted 1:150 in Assay Buffer. Compounds were then diluted 1:10 in column 1 of a 96 deep well dilution plate and then carried across the row creating a 3.5 fold, 12 point dilution curve. • 4) Assay Buffer (50 μl aliquot) with or without HSA was added to each well in the assay plate. • 5) A 50 μl aliquot of compound or blank was transferred from the dilution plate to the assay plate containing the Assay Buffer with or without HSA. • 6) The assay plate was incubated for 3 h in a 5% CO2 incubator at 37° C. • 7) The cells were washed once with DPBS. • 8) A 100 μl aliquot of DPBS was added to each well of the assay plate. • 9) A 100 μl aliquot of steadylite plus reagent (light sensitive) was added to each well of the assay plate. • 10) Each assay plate was covered with aluminum foil to protect it from light and shaken at 250 RPM for 30 min at room temperature. • 11) Each assay plate was read in a microtiter plate reader.
(§6) The data from the microtiter plate reader was first regressed in an Excel in order to calculate the x-axis, log scale concentrations based on the individual test compound's stock concentration and the dilutions of the assay. […] The software performs a non-linear regression (log(agonist) vs response). A minimum of two replicates was measured for each sample. The reported values are averages of the replicates.

human GLP-1 receptor = molecular target: T2, human GLP-1 receptor (Homo sapiens, UniProt P43220); assay: In vitro functional potency, CRE luciferase reporter gene assay, whole BHK cells expressing hGLP-1R; assay type: cell-based; details: BHK CRE luc2P hGLP-1R cells
T2 construct: expressed in transfected cells; host or cells: BHK (parent line BHKTS13), clone BHK CRE luc2P hGLP-1R
Method: as §1, §2, §3, §4, §5, §6

[1] = Pharmacokinetic study in dogs, oral dosing of tablet compositions with SNAC; assay type: in vivo, Beagle dogs; details: dog, in vivo, po; for Tmax / half-life: male, beagle; for half-life: t1/2
Procedure, shortened: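 The tablets held 3-4 mg compound plus 100-300 mg SNAC and were given to fasted male beagles (6-8 per group); non-compartmental PK per animal.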

[2] = 0% HSA, read-out: hGIPR, CRE Luc 0% HSA EC50
[3] = hGIPR, CRE Luc 1% HSA EC50, 1% HSA
[4] = 0% HSA, read-out: hGLP-1R, CRE Luc 0% HSA EC50
[5] = hGLP-1R, CRE Luc 1% HSA EC50, 1% HSA

T2 sequence (P43220 24-463): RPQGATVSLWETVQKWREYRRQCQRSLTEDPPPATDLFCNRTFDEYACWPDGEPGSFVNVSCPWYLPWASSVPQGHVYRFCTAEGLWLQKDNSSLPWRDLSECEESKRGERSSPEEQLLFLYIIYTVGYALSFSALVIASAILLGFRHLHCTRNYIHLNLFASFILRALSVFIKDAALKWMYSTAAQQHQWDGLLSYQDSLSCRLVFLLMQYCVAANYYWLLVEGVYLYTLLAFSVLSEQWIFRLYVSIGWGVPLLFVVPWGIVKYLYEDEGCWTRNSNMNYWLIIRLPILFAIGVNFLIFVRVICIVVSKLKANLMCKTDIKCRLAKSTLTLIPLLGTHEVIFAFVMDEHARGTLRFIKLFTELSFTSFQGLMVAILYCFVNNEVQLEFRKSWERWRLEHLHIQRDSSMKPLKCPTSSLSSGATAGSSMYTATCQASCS

Compound | EC50 (human GIP receptor; [2]) [nM] | EC50 (human GIP receptor; [3]) [nM] | EC50 (human GLP-1 receptor; [4]) [nM] | EC50 (human GLP-1 receptor; [5]) [nM] | AUC/Dose [1] [kg·h/L] | Tmax [1] [h] | half-life [1] [h]
CC[C@H](C)[C@H](NC(=O)[C@H](Cc1ccccc1)NC(=O)[C@H](CCC(=O)O)NC(=O)[C@H](CCCNC(=N)N)NC(=O)[C@H](C)NC(=O)[C@H](C)NC(=O)[C@H](CCC(N)=O)NC(=O)[C@H](CCCCNC(=O)[C@@H](N)CCCCNC(=O)[C@@H](N)CCCCNC(=O)CC[C@H](NC(=O)CCCCCCCCCCCCCCCCC(=O)O)C(=O)O)NC(=O)[C@H](CCC(=O)O)NC(=O)[C@H](CC(C)C)NC(=O)[C@H](Cc1ccc(O)cc1)NC(=O)[C@@H](NC(=O)[C@H](CO)NC(=O)[C@H](Cc1ccc(O)cc1)NC(=O)[C@H](CC(=O)O)NC(=O)[C@H](CO)NC(=O)[C@@H](NC(=O)[C@H](Cc1ccccc1)NC(=O)[C@@H](NC(=O)CNC(=O)[C@H](CCC(=O)O)NC(=O)C(C)(C)NC(=O)[C@@H](N)Cc1ccc(O)cc1)[C@@H](C)O)[C@@H](C)O)[C@@H](C)CC)C(=O)N[C@@H](CCC(=O)O)C(=O)N[C@@H](Cc1c[nH]c2ccccc12)C(=O)N[C@@H](CC(C)C)C(=O)N[C@@H](CC(C)C)C(=O)N[C@@H](C)C(=O)NCC(=O)NCC(=O)N1CCC[C@H]1C(=O)N[C@@H](CO)C(=O)N[C@@H](CO)C(=O)NCC(=O)N[C@@H](C)C(=O)N1CCC[C@H]1C(=O)N1CCC[C@H]1C(=O)N1CCC[C@H]1C(=O)N[C@@H](CO)C(=O)O [Compound No. 9] (H-Y[Aib]EGTFTSDYSIYLEK([εLys-εLys-γGlu-C18 diacid])QAAREFIEWLLAGGPSSGAPPPS-OH) | […] | […] | 0.0038 | 0.279 | […] | 2 | […]
CC[C@H](C)[C@H](NC(=O)[C@H](Cc1ccccc1)NC(=O)[C@H](CCC(=O)O)NC(=O)[C@H](CCCNC(=N)N)NC(=O)[C@H](C)NC(=O)[C@H](C)NC(=O)[C@H](CCC(N)=O)NC(=O)[C@H](CCCCNC(=O)COCCOCCNC(=O)COCCOCCNC(=O)CC[C@H](NC(=O)CCCCCCCCCCCCCCCCC(=O)O)C(=O)O)NC(=O)[C@H](CCC(=O)O)NC(=O)[C@H](CC(C)C)NC(=O)[C@H](Cc1ccc(O)cc1)NC(=O)[C@@H](NC(=O)[C@H](CO)NC(=O)[C@H](Cc1ccc(O)cc1)NC(=O)[C@H](CC(=O)O)NC(=O)[C@H](CO)NC(=O)[C@@H](NC(=O)[C@H](Cc1ccccc1)NC(=O)[C@@H](NC(=O)CNC(=O)[C@H](CCC(=O)O)NC(=O)C(C)(C)NC(=O)[C@@H](N)Cc1ccc(O)cc1)[C@@H](C)O)[C@@H](C)O)[C@@H](C)CC)C(=O)N[C@@H](CCC(=O)O)C(=O)N[C@@H](Cc1c[nH]c2ccccc12)C(=O)N[C@@H](CC(C)C)C(=O)N[C@@H](CC(C)C)C(=O)N[C@@H](C)C(=O)NCC(=O)NCC(=O)N1CCC[C@H]1C(=O)N[C@@H](CO)C(=O)N[C@@H](CO)C(=O)NCC(=O)N[C@@H](C)C(=O)N1CCC[C@H]1C(=O)N1CCC[C@H]1C(=O)N1CCC[C@H]1C(=O)N[C@@H](CO)C(=O)O [Compound No. 10] (H-Y[Aib]EGTFTSDYSIYLEK([AEEA-AEEA-γGlu-C18 diacid])QAAREFIEWLLAGGPSSGAPPPS-OH) | 0.0113 | 1.75 | 0.0039 | 0.94 | 8.4 | 1 | 36
CC[C@H](C)[C@H](NC(=O)[C@H](Cc1ccccc1)NC(=O)[C@H](CCC(=O)O)NC(=O)[C@H](CCCNC(=N)N)NC(=O)[C@H](C)NC(=O)[C@H](C)NC(=O)[C@H](CCC(N)=O)NC(=O)[C@H](CCCCNC(=O)[C@@H](N)CCCCNC(=O)[C@@H](N)CCCCNC(=O)CC[C@H](NC(=O)CCCCCCCCCCCCCCCCC(=O)O)C(=O)O)NC(=O)[C@H](CCC(=O)O)NC(=O)[C@H](CC(C)C)NC(=O)[C@H](Cc1ccc(O)cc1)NC(=O)[C@@H](NC(=O)[C@H](CO)NC(=O)[C@H](Cc1ccc(O)cc1)NC(=O)[C@H](CC(=O)O)NC(=O)[C@H](CO)NC(=O)[C@@H](NC(=O)[C@H](Cc1ccccc1)NC(=O)[C@@H](NC(=O)CNC(=O)[C@H](CCC(=O)O)NC(=O)C(C)(C)NC(=O)[C@@H](N)Cc1ccc(O)cc1)[C@@H](C)O)[C@@H](C)O)[C@@H](C)CC)C(=O)N[C@@H](CCC(=O)O)C(=O)N[C@@H](Cc1c[nH]c2ccccc12)C(=O)N[C@@H](CC(C)C)C(=O)N[C@@H](CC(C)C)C(=O)N[C@@H](CCCNC(=N)N)C(=O)NCC(=O)NCC(=O)N1CCC[C@H]1C(=O)N[C@@H](CO)C(=O)N[C@@H](CO)C(=O)NCC(=O)N[C@@H](C)C(=O)N1CCC[C@H]1C(=O)N1CCC[C@H]1C(=O)N1CCC[C@H]1C(=O)N[C@@H](CO)C(=O)O [Compound No. 12] (H-Y[Aib]EGTFTSDYSIYLEK([εLys-εLys-γGlu-C18 diacid])QAAREFIEWLLRGGPSSGAPPPS-OH; N-terminus assumed) | 0.009 | 0.0715 | 0.004 | 0.0544 | – | – | –
CC[C@H](C)[C@H](NC(=O)[C@H](CO)NC(=O)[C@H](Cc1ccc(O)cc1)NC(=O)[C@H](CC(=O)O)NC(=O)[C@H](CO)NC(=O)[C@@H](NC(=O)[C@H](Cc1ccccc1)NC(=O)[C@@H](NC(=O)CNC(=O)[C@H](CCC(=O)O)NC(=O)C(C)(C)NC(=O)[C@@H](N)Cc1ccc(O)cc1)[C@@H](C)O)[C@@H](C)O)C(=O)N[C@@H](C)C(=O)N[C@@H](CC(C)C)C(=O)N[C@@H](CCC(=O)O)C(=O)N[C@@H](CCCCNC(=O)[C@@H](N)CCCCNC(=O)[C@@H](N)CCCCNC(=O)CC[C@H](NC(=O)CCCCCCCCCCCCCCCCC(=O)O)C(=O)O)C(=O)N[C@@H](CCC(N)=O)C(=O)N[C@@H](C)C(=O)N[C@@H](C)C(=O)N[C@@H](CCCNC(=N)N)C(=O)N[C@@H](CCC(=O)O)C(=O)N[C@@H](Cc1ccccc1)C(=O)N[C@H](C(=O)N[C@@H](CC(N)=O)C(=O)N[C@@H](Cc1c[nH]c2ccccc12)C(=O)N[C@@H](CC(C)C)C(=O)N[C@@H](CC(C)C)C(=O)N[C@@H](C)C(=O)NCC(=O)NCC(=O)N1CCC[C@H]1C(=O)N[C@@H](CO)C(=O)N[C@@H](CO)C(=O)NCC(=O)N[C@@H](C)C(=O)N1CCC[C@H]1C(=O)N1CCC[C@H]1C(=O)N1CCC[C@H]1C(=O)N[C@@H](CO)C(=O)O)[C@@H](C)CC [Compound No. 14] (H-Y[Aib]EGTFTSDYSIALEK([εLys-εLys-γGlu-C18 diacid])QAAREFINWLLAGGPSSGAPPPS-OH) | 0.0116 | 0.58 | 0.0054 | 0.306 | – | – | –
